Measurements as given in patent publication US12459910B2, “Mitochondrial therapeutic agents” (ARIZONA BOARD OF REGENTS ON BEHALF OF ARIZONA STATE …, priority 2021, dated 2025).

What was measured:
FRDA lymphocytes = experiment: RSL3 challenge lipid peroxidation assay (C11-BODIPY581/591, FACS); format: cell-based; settings: Homo sapiens; FRDA lymphocytes (GM15850); compounds overnight, then 2 μM RSL3; C11-BODIPY581/591 flow cytometry; read-out: RSL3 challenge lipid peroxidation inhibition EC50
Text: (§1) All compounds evaluated for their biological effects were >95% pure. Chemicals employed for the bioassays, including ferrostatin-1 (Fer-1), liproxstatin-1 (Lip-1), RSL3 ((1S,3R)-RSL3), erastin, α-tocopherol, carbonyl cyanide 4-(trifluoromethoxy) phenylhydrazone (FCCP) and galactose, were purchased from Sigma Aldrich. Fluorescent probes, including C11-BODIPY581/591(4,4-difluoro-5-(4-phenyl-1,3-butadienyl)-4-bora-3a,4a-diaza-s-indacene-3-propionic acid), and The Live/Dead® Viability/Cytotoxicity Kit were obtained from Invitrogen (Thermo Fisher Scientific). Luciferase-linked ATPase enzymatic assay (ViaLight Plus proliferation/cytoxicity kit was purchased from Lonza (Walkersville, MD). FRDA lymphocytes (catalogue number GM15850) and FRDA fibroblasts cells (catalogue number GM04078) were obtained from Coriell Cell Repositories (Camden, NJ, USA).
(§2) Lymphocytes were cultured in RPMI-1640 medium (Gibco, Life Technologies, Grand Island, NY) with 15% fetal calf serum, 2 mM glutamine (HyClone, South Logan, UT) and 1% penicillin-streptomycin antibiotic supplement (Cellgro, Manassas, VA). Cells were passaged daily to maintain them in log phase growth and kept at a nominal concentration of 5-10×105 mL. FRDA fibroblasts were cultured in 64% (v/v) Eagle's minimal essential medium (MEM), lacking phenol red with Eagle's balanced salt (EBS) and 25% M199 with EBS (Gibco) supplemented with 10% (v/v) fetal bovine serum albumin (HyClone), 1% penicillin-streptomycin antibiotic mix, 10 μg/mL insulin (Gibco), 10 ng/mL […] (EGF), 10 ng/mL basic fibroblast growth factor (Gibco) and 2 mM glutamine. Cells were grown in 75 cm2 culture flasks and incubated at 37° C. in a humidified atmosphere of 5% CO2 in air. Cells were fed twice weekly and split every third day at a ratio of 1:3. All experiments were conducted with FRDA cells from passages 8-14.
Lipid peroxidation in live cells can be visualized using the oxidation-sensitive fluorescent probe C11-BODIPY581/591. Upon oxidation of this probe, the fluorescence properties shift from a red-emitting form (595 nm) to a green emitting form (520 nm). Changes in fluorescence indirectly reflect the oxidation of unsaturated fatty acids. A quantitative analysis of lipid peroxidation in FRDA lymphocytes, challenged with 2 μM RSL3 in the presence or absence of the test compounds for 2 h was obtained by FACS analysis using the specific dye C11-BODIPY581/591. Briefly, FRDA lymphocytes (5×10^5 cell/mL) were treated with the test compounds (dissolved in DMSO and added to the assay medium at final DMSO concentrations <0.5%) at varying concentrations and incubated at 37° C. overnight in a humidified atmosphere containing 5% CO2 in air. Cells were treated with 2 μM of RSL3 and then incubated for 90 minutes in a humidified atmosphere containing 5% CO2 in air at 37° C. Cells were treated with 2 μM of C11-BODIPY581/591 in phenol red-free RPMI-1640 media and incubated at 37° C. in the dark for 30 min. […] Cells were resuspended in 300 μL of PBS and were analyzed immediately by flow cytometry (C6 Accuri, BD Biosciences, San Jose, CA), to monitor the change in intensity of the C11-BODIPY581/591-green (oxidized) fluorescence signal using 488 nm excitation laser and FL1-H channel 538 nm emission filter. In each analysis, 10,000 events were recorded. […] Final data output was a calculated EC50 value determined graphically from the dose-response curves using the nonlinear regression curve fit analysis model.

FRDA fibroblasts = experiment: Erastin cell survival assay (cellular ATP, ViaLight Plus); format: cell-based; settings: FRDA fibroblasts (GM04078); compounds 12 h before 4 μM erastin; viability by ATP 48 h after erastin; read-out: Erastin challenge cell survival EC50
Text: as §1, §2
The ability of the test compounds to confer cytoprotection to ferroptosis inducer erastin in FRDA fibroblasts was determined by assessing the depletion of cellular ATP using a commercially available luciferase-linked ATPase enzymatic assay (ViaLight® Plus proliferation/cytotoxicity Kit (Lonza, Walkersville, MD) according to the directions of the manufacturer. Briefly, FRDA fibroblasts (GM04078) were plated in 96-well microtiter plates at a density of 3000 cell/well (50 μL) (Costar, Corning, NY). The plates were incubated at 37° C. for 24 h in an atmosphere having 95% humidity and 5% CO2 to allow attachment of the cells to the culture plates and to allow the cell density reach 60-70% confluency. The next day the test compounds were dissolved in DMSO, diluted to the appropriate concentrations in fresh cell culture media and the cells were then treated with the test compounds (final DMSO concentration was <0.5%). […] Cell viability in each well was determined 48 h after erastin addition by measuring the intracellular ATP content using the ViaLight®-Plus ATP monitoring reagent kit (Lonza, Walkersville, MD) according to the manufacturer's protocol. The ATP concentration was determined by reading luminescence using a luminator (Clarity™ luminescence microplate reader). The percent of viable cells relative to non-treated control was determined for each well. […] Final data output was a calculated EC50 value determined graphically from the dose-response curves using the nonlinear regression curve fit analysis model.

EC50 (FRDA lymphocytes) [nM] | SMILES | EC50 (FRDA fibroblasts) [nM]
9 ± 1 | CCCCCCCCCCc1cc2nc3ccc(=O)cc-3sc2cc1N(C)C [Example 1, 8-Decyl-7-(dimethylamino)-3H-phenothiazin-3-One] | 10 ± 1
14 ± 1 | CCCCCCCCc1cc2nc3ccc(=O)cc-3sc2cc1N(C)C [Example 2, 7-(Dimethylamino)-8-octyl-3H-phenothiazin-3-one] | 15 ± 3
12 ± 1 | CCCCCCCCCc1cc2nc3ccc(=O)cc-3sc2cc1N(C)C [Example 3, 7-(Dimethylamino)-8-nonyl-3H-phenothiazin-3-one] | 11 ± 1
16 ± 1 | CCCCCCCCCCCCc1cc2nc3ccc(=O)cc-3sc2cc1N(C)C [Example 4, 7-(Dimethylamino)-8-dodecyl-3H-phenothiazin-3-one] | 15 ± 1
25 ± 3 | CCCCCCCCCCCCCCCCc1cc2nc3ccc(=O)cc-3sc2cc1N(C)C [Example 5, 7-(Dimethylamino)-8-hexadecyl-3H-phenothiazin-3-one] | 22 ± 2
